Reference: BindingDB's records for patent US12227501 (Bayer Aktiengesellschaft, 2025)

Columns and labels:
[1] = target: T1, Casein kinase I isoform alpha (Homo sapiens, UniProt P48729); assay: CSNK1A1 Assay 1
Procedure: Inhibitory activity of compounds of the present invention in presence of 1 μM adenosine-tri-phosphate (ATP) was quantified employing the CSNK1A1 assay as described in the following paragraphs. In essence, the enzyme activity is measured by quantification of the adenosine-di-phosphate (ADP), which is generated as a co-product of the enzyme reaction, via the “ADP-Glo™ Kinase Assay” kit from the company Promega. This detection system works as follows: In a first step the ATP not consumed in the kinase reaction is quantitatively converted to cAMP employing an adenylate cyclase (“ADP-Glo-reagent”), then the adenylate cyclase is stopped and the ADP generated in the kinase reaction converted to ATP which generates in a luciferase-based reaction a glow-luminescence signal (“Kinase Detection Reagent”). Recombinant fusion protein of N-terminal Glutathion-S-Transferase (GST) and full-length human CSNK1A1, expressed by baculovirus infected insect cells and purified via Glutathion affinity chromatography, was purchased from Life Technologies (product no. PV4174) and used as enzyme. As substrate for the kinase reaction the biotinylated peptide Btn-Ahx-[…] (C-terminus in amide form) was used which can be purchased e.g. from the company Biosyntan (Berlin-Buch, Germany).

[2] = target: T2, Epidermal growth factor receptor [669-1210] (UniProt P00533); assay: WT-EGFR Kinase Assay
T2 construct: 669-1210
Procedure: For the assay 50 nl of a 100 fold concentrated solution of the test compound in DMSO was pipetted into either a black low volume 384 well microtiter plate or a black 1536 well microtiter plate (both Greiner Bio-One, Frickenhausen, Germany), 2 μL of a solution of EGFR in aqueous assay buffer [50 mM Hepes pH 7.0, 10 mM MgCl2, 1 mM dithiothreitol, 0.5 mM EGTA, 0.3 mM activated sodium ortho-vanadate, 0.005% (w/v) bovine serum albumin, 0.005% (v/v) Tween-20] were added and the mixture was incubated for 15 min at 22° C. to allow pre-binding of the test compounds to the enzyme before the start of the kinase reaction. […] The concentration of EGFR was adjusted depending of the activity of the enzyme lot and was chosen appropriate to have the assay in the linear range, typical concentration was 7.6 pg/μL. […] Subsequently the amount of phosphorylated substrate was evaluated by measurement of the resonance energy transfer from the PT66-Tb-Cryptate to the streptavidine-XL665.

[3] = target: T1, Casein kinase I isoform alpha; assay: CSNK1A1 Assay 2
Procedure: For the assay 50 nl of a 100 fold concentrated solution of the test compound in DMSO was pipetted into a white 1536-well microtiter plate (Greiner Bio-One, Frickenhausen, Germany), 2 μL of a solution of CSNK1A1 in aqueous assay buffer [50 mM HEPES pH 7.5, 10% (v/v) glycerol, 10 mM MgCl2, 50 mM NaCl, 1 mM dithiothreitol, 0.01% (w/v) bovine serum albumin, 0.01% (v/v) Triton X-100] were added and the mixture was incubated for 15 min at 22° C. to allow pre-binding of the test compounds to the enzyme before the start of the kinase reaction. […] The concentration of CSNK1A1 was adjusted depending of the activity of the enzyme lot and was chosen appropriate to have the assay in the linear range, a typical concentrations are about 0.0375 ng/μL. The reaction was stopped by the addition of 2.5 μL of “ADP-Glo-reagent” (1:1.5 fold diluted with water) and the resulting mixture was incubated at 22° C. for 1 h to convert the ATP not consumed in the kinase reaction completely […]. Subsequently 2.5 μL of the “kinase detection reagent” (1.2 fold more concentrated than recommended by the producer) were added, the resulting mixture was incubated at 22° C. for 1 h and then the luminescence measured with a suitable measurement instrument (e.g. Viewlux™ from Perkin-Elmer).

[4] = target: Casein kinase I isoform delta (Homo sapiens, UniProt P48730); assay: CSNK1D Assay
Procedure: For the assay 50 nl of a 100 fold concentrated solution of the test compound in DMSO was pipetted into a white 1536-well microtiter plate (Greiner Bio-One, Frickenhausen, Germany), 2 μL of a solution of CSNK1D in aqueous assay buffer [50 mM HEPES pH 7.5, 10% (v/v) glycerol, 10 mM MgCl2, 50 mM NaCl, 1 mM dithiothreitol, 0.01% (w/v) bovine serum albumin, 0.01% (v/v) Triton X-100] were added and the mixture was incubated for 15 min at 22° C. to allow pre-binding of the test compounds to the enzyme before the start of the kinase reaction. […] The concentration of CSNK1 D was adjusted depending of the activity of the enzyme lot and was chosen appropriate to have the assay in the linear range, a typical concentration is about 0.5 ng/μL. The reaction was stopped by the addition of 2.5 μL of “ADP-Glo-reagent” (1:1.5 fold diluted with water) and the resulting mixture was incubated at 22° C. for 1 h to convert the ATP not consumed in the kinase reaction completely […]. Subsequently 2.5 μL of the “kinase detection reagent” (1.2 fold more concentrated than recommended by the producer) were added, the resulting mixture was incubated at 22° C. for 1 h and then the luminescence measured with a suitable measurement instrument (e.g. Viewlux™ from Perkin-Elmer). The amount of emitted light was taken as a measure for the amount of ADP generated and thereby for the activity of the CSNK1D.

[5] = target: T1, Casein kinase I isoform alpha; assay: CSNK1A1 High ATP Assay
Procedure: For the assay 50 nl of a 100 fold concentrated solution of the test compound in DMSO was pipetted into a white low volume 384-well microtiter plate (Greiner Bio-One, Frickenhausen, Germany), 2 μL of a solution of CSNK1A1 in aqueous assay buffer [50 mM HEPES pH 7.5, 10% (v/v) glycerol, 10 mM MgCl2, 50 mM NaCl, 1 mM dithiothreitol, 0.01% (w/v) bovine serum albumin, 0.01% (v/v) Triton X-100] were added and the mixture was incubated for 15 min at 22° C. to allow pre-binding of the test compounds to the enzyme before the start of the kinase reaction. […] The concentration of CSNK1A1 was adjusted depending of the activity of the enzyme lot and was chosen appropriate to have the assay in the linear range, a typical concentration is about 0.4 ng/μL. The reaction was stopped by the addition of 2.5 μL of “ADP-Glo-reagent” (1:1.5 fold diluted with water) and the resulting mixture was incubated at 22° C. for 1 h to convert the ATP not consumed in the kinase reaction completely […]. Subsequently 2.5 μL of the “kinase detection reagent” (1.2 fold more concentrated than recommended by the producer) were added, the resulting mixture was incubated at 22° C. for 1 h and then the luminescence measured with a suitable measurement instrument (e.g. Viewlux™ from Perkin-Elmer). The amount of emitted light was taken as a measure for the amount of ADP generated and thereby for the activity of the CSNK1A1.

T2 sequence (P00533 669-1210): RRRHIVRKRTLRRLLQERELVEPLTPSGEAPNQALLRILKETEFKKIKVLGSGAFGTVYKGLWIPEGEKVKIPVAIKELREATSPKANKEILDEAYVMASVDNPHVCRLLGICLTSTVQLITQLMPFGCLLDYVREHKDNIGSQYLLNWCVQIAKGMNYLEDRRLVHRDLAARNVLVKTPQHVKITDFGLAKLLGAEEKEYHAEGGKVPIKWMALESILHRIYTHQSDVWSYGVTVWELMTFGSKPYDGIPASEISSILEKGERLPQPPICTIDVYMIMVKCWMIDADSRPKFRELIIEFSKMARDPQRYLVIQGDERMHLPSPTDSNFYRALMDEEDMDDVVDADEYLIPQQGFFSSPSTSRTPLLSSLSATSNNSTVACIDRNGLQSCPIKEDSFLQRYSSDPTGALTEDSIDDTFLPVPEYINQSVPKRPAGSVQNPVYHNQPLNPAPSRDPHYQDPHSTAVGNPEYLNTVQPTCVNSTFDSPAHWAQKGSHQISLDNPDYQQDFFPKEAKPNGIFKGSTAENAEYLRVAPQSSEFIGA
T1 sequence (P48729 whole entry, canonical isoform): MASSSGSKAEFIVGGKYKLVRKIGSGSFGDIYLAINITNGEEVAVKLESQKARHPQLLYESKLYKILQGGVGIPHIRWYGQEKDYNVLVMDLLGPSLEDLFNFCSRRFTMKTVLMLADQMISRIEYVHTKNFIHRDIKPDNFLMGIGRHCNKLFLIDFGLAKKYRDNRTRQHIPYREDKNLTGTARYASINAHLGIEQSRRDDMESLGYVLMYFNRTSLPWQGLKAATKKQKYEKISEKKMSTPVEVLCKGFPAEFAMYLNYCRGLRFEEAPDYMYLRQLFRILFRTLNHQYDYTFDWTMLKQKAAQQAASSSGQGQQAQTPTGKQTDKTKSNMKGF
Casein kinase I isoform delta, sequence (P48730 whole entry, canonical isoform): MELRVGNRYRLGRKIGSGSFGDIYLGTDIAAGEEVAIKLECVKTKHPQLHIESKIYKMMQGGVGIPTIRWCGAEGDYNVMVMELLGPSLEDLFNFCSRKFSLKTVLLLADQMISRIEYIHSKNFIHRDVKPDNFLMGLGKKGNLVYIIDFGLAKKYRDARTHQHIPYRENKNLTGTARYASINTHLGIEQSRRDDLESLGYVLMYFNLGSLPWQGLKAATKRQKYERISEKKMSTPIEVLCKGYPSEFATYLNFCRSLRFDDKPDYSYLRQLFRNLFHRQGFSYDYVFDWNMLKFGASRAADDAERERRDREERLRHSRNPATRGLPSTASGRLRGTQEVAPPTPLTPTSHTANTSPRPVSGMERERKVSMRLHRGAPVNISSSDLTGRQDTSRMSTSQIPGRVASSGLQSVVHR

Compound: CN1CCc2[nH]c(-c3ccnc(NC(=O)[C@@H]4C[C@@H]4F)c3)c(Nc3ccccc3)c2C1=O [US10428063, Example 40]
- IC50 [1]: 24.1 nM
- IC50 [2]: 85.5 nM

Compound: CC1(C)Cc2[nH]c(-c3ccnc(NC(=O)Cc4ccc(F)cc4)c3)c(Nc3ccccc3)c2C(=O)N1 [US12227501, Example 22]
- IC50 [3]: 4.23 nM
- IC50 [4]: 11.9 nM
- IC50 [5]: 54.7 nM
- IC50 [2]: 815 nM

Compound: CC(C(=O)Nc1cc(-c2[nH]c3c(c2Nc2ccccc2F)C(=O)N(C)CC3)ccn1)c1ccc(F)cc1 (stereo not drawn) [US12227501, Example 29]
- IC50 [3]: 3.19 nM
- IC50 [5]: 138 nM

Compound: O=C(Cc1ccc(F)cc1)Nc1cc(-c2[nH]c3c(c2Nc2ccccc2)C(=O)N(CC(F)(F)F)CC3)ccn1 [US12227501, Example 36]
- IC50 [3]: 11.3 nM
- IC50 [5]: 1080 nM
- IC50 [2]: > 20000 nM

Compound: CC(C(=O)Nc1cc(-c2[nH]c3c(c2Nc2ccccc2)C(=O)N(CC(F)(F)F)CC3)ccn1)c1ccc(F)cc1 (stereo not drawn) [US12227501, Example 37]
- IC50 [3]: 22.6 nM
- IC50 [5]: > 1630 nM
- IC50 [2]: > 20000 nM

Compound: Cc1cccc(CC(=O)Nc2cc(-c3[nH]c4c(c3Nc3ccccc3)C(=O)N(C)CC4)ccn2)c1 [US12227501, Example 70]
- IC50 [3]: 3.2 nM
- IC50 [4]: 3.66 nM
- IC50 [5]: 140 nM
- IC50 [2]: 2040 nM

Compound: Cc1ccccc1CC(=O)Nc1cc(-c2[nH]c3c(c2Nc2ccccc2)C(=O)N(C)CC3)ccn1 [US12227501, Example 71]
- IC50 [3]: 4.79 nM
- IC50 [4]: 6.47 nM
- IC50 [5]: 241 nM
- IC50 [2]: 7430 nM

Compound: Cc1ccccc1Nc1c(-c2ccnc(NC(=O)Cc3ccc(F)cc3)c2)[nH]c2c1C(=O)NC(C)(C)C2 [US12227501, Example 113]
- IC50 [3]: 13.7 nM
- IC50 [4]: 16.1 nM
- IC50 [5]: 166 nM

Compound: CC1(C)Cc2[nH]c(-c3ccnc(NC(=O)Cc4ccc(F)cc4)c3)c(Nc3cccc(F)n3)c2C(=O)N1 [US12227501, Example 126]
- IC50 [3]: 4.44 nM
- IC50 [4]: 14.4 nM
- IC50 [5]: 47.8 nM

Compound: CC1(C)Cc2[nH]c(-c3ccnc(NC(=O)Cc4ccc(F)cc4)c3)c(Nc3cccc(F)n3)c2C(=O)N1 [US12227501, Example 127]
- IC50 [3]: 4.74 nM
- IC50 [5]: 23.1 nM
- IC50 [2]: > 20000 nM

Compound: Cc1c(F)cccc1Nc1c(-c2ccnc(NC(=O)Cc3ccc(F)cc3)c2)[nH]c2c1C(=O)NC(C)(C)C2 [US12227501, Example 131]
- IC50 [3]: 9.38 nM
- IC50 [4]: 11.6 nM
- IC50 [5]: 464 nM
- IC50 [2]: 1090 nM

Compound: Cc1ccccc1Nc1c(-c2ccnc(NC(=O)Cc3ccc(F)cc3)c2)[nH]c2c1C(=O)NC1(CCC1)C2 [US12227501, Example 142]
- IC50 [3]: 5.1 nM
- IC50 [4]: 9.35 nM
- IC50 [5]: 12.3 nM
- IC50 [2]: > 20000 nM

Compound: CN1C(=O)c2c([nH]c(-c3ccnc(NC(=O)Cc4ccc(F)cc4)c3)c2Nc2ccccc2)CC12CCC2 [US12227501, Example 156]
- IC50 [3]: 6.09 nM
- IC50 [4]: 9.38 nM
- IC50 [5]: 29.7 nM
- IC50 [2]: 6660 nM
